Entries after “also recorded” stand apart in the source; their conditions may differ. Like-named read-outs stand apart in the source and are kept apart here.
Tests used:
[1] = Metabolic stability in mouse liver microsomes; assay type: in vitro ADME; details: for half-life at 2 μM: 0.5 mg protein/ml, 2.0 uM compound, 1.0 mM NADPH, read-out: MLM t1/2
Method: (§1) The samples were collected at specific time points, 0, 30, and 60 min, in duplicate. The reactions were terminated by adding an equivalent volume of ice-cold methanol and vortexed. […] Three microliters […] of the supernatant was analyzed by UHPLC-Q Exactive Orbitrap MS (Thermo Fisher Scientific) equipped with 50-mm × 4.6-mm column (XDB C-18; Agilent Technologies). The column temperature was maintained at 40 °C. The flow rate was at 0.3 mL/min with a 30% mobile phase (acetonitrile containing 0.1% formic acid). Q Exactive MS was operated in positive mode with electrospray ionization. Ultrapure nitrogen was applied as the sheath (45 arbitrary units), auxiliary (10 arbitrary units), sweep (1.0 arbitrary unit), and the collision gas. […] Mass Spectrometry (MS) data were acquired from 80 to 1,200 Da in profile mode.

[2] = Metabolic stability in human liver microsomes; assay type: in vitro ADME; details: for half-life at 2 μM: 0.5 mg protein/ml, 2.0 uM compound, 1.0 mM NADPH, read-out: HLM t1/2
Method: as §1

SARS-CoV-2 M^pro-His6 = SARS-CoV-2 M^pro-His6 (Severe acute respiratory syndrome coronavirus 2, UniProt P0DTD1); experiment: M^pro-His6 enzyme inhibition assay, fluorescent peptide reporter; assay type: biochemical; details: for M^pro inhibitory activity (in words): analogs compared with CDD-1713
[3] = tested on: SARS-CoV-2 main protease (M^pro); experiment: Protein thermal shift stability assay (thermofluor); assay type: binding; details: 1.5 μM protease, various compound concentrations, SYPRO Orange
Method: The dye SYPRO Orange (Thermo Fisher Scientific) was used to perform the protein thermal shift assay. The assay was set up on a 384-well Roche plate where the SARS-CoV-2 main protease at a concentration of 1.5 μM was incubated with the test compound at various concentrations and SYPRO Orange dye at 5× in a 10 μL reaction. The melting curve experiment and data analysis were run on a Roche Lightcycler 480 real-time PCR instrument.

SARS-CoV-2 M^pro = SARS-CoV-2 M^pro (Severe acute respiratory syndrome coronavirus 2, UniProt P0DTD1); experiment: M^pro (His tag removed) enzyme inhibition assay, fluorescent peptide reporter; assay type: biochemical; details: Table S1, 25 nM enzyme, 15 µM fluorescent peptide, Morrison equation, SE from triplicates
[4] = tested on: SARS-CoV-2 (USA_WA1/2020 isolate); experiment: RTCA assay for in vitro inhibition of SARS-CoV-2 replication in VERO E6 cells; assay type: cell-based; details: live SARS-CoV-2, 75 h
HepG2 cells [5] = experiment: HepG2 cell uptake assay; assay type: in vitro ADME; details: 10 μM, 2 h, 37 °C
Method: (§2) The HepG2 cells maintained in DMEM (containing 1 g/L glucose, 10% fetal bovine serum [FBS], and 1% penicillin/streptomycin) were seeded in a 12-well plate (a final density of 5 × 10^5 per well) for cell uptake assay and 96-well plate for cytotoxicity assay (a final density of 5 × 10^4 per well). The plate was incubated at 37 °C for 24 h.
The cells in 12-well plate were treated with CDD-1713 or CDD-1976 (final concentration: 10 μM). The plate was incubated at 37 °C for another 2 h. The medium in the plate was decanted and the cells were rinsed with 1 mL of 1× DPBS three times, then 0.5 mL of 0.25% trypsin was added to each well and incubated for 3.5 min (at 37 °C). One milliliter of complete medium was added to each well to quench the reaction. After spinning at 350 × g for 5 min, the cell pellet was reconstituted in MeOH/H2O (vol/vol 1/1) and CDD-1713 or CDD-1976 was extracted from 100 μL of the resulting mixture with 100 μL of ice-cold methanol. The mixtures were centrifuged at rcf 15,000 for 15 min. Three microliters of the supernatant was analyzed by UHPLC-Q Exactive Orbitrap MS (Thermo Fisher Scientific) equipped with a 50-mm × 4.6-mm column (XDB C-18; Agilent Technologies). The column temperature was set at 40 °C. Ultrapure nitrogen was applied as the sheath (45 arbitrary units), auxiliary (10 arbitrary units), sweep (1.0 arbitrary unit), and the collision gas. […]

[6] = Plasma stability assay, human plasma; assay type: in vitro ADME; details: 10 µM, 37 °C, after 2-h incubation
Method: (§3) Compound CDD-1713 and CDD-1976 were incubated in human and mouse plasma, respectively, at a concentration of 10 µM in duplicate (n = 2) at 37 °C. At time points of 0, 30, 60, and 120 min, 15 µL of sample were taken out and the reactions terminated by adding 75 µL of ice-cold methanol. The reaction mixtures were then vortexed for 30 s and centrifuged at rcf 15,000 for 15 min. Following centrifugation, 3 μL of the supernatant was analyzed using UHPLC-Q Exactive Orbitrap MS. The percentage of test compound remaining at the individual time points relative to the 0-min sample was then determined.

HepG2 cells [7] = experiment: HepG2 cytotoxicity assay (XTT); assay type: cell-based; details: 24 h
Method: as §2
(§4) The cells in 96-well plate were treated by CDD-1713 or CDD-1976 at the final concentrations of 0, 10, 20, 50, or 100 μM (n = 3 replicates per concentration level per drug). After 24-h incubation at 37 °C, the medium in the plate was decanted and 100 μL of Dulbecco’s modified Eagle’s medium (DMEM) (without phenol red) was added into each well. The cell variability was measured using XTT method. The absorbance at 475 nm was read with a Tecan M1000 pro machine, with a reference wavelength of 660 nm. The reading was normalized by vehicle with final 0.5% dimethyl sulfoxide (DMSO) for each drug.

[8] = HepG2 cytotoxicity assay (XTT); assay type: cell-based; details: human, HepG2 cells, 100 µM group, XTT, normalized to DMSO, read-out: HepG2 cell viability
Method: as §2, §4

[9] = Plasma stability assay, mouse plasma; assay type: in vitro ADME; details: 10 µM, 37 °C, after 2-h incubation
Method: as §3

[10] = read-out: Ki against M^pro (Fig. 2; Fig. 2B M^pro-His-tag), 25 nM enzyme, 15 µM fluorescent peptide, Morrison equation, inactive = less than 90% inhibition at 25 µM
[11] = read-out: Mpro-His Ki, Table S1, 25 nM enzyme, 15 µM fluorescent peptide, Morrison equation, SE from triplicates
[12] = Table S1, 25 nM enzyme, 15 µM fluorescent peptide, Morrison equation, SE from triplicates

## Cc1nnc2n1-c1ccc(Cl)cc1C(c1ccccc1)=NC2 [Alprazolam, reference compound]
[1]
  half-life at 2 μM: 4.93 h
[2]
  half-life at 2 μM: 13.9 h

## COc1cc(-c2cccc3[nH]ncc23)cc(C=O)c1OCC(=O)N1CCC(Oc2cccc(C(=O)N(C)C)c2)C1 (stereo not drawn) [CDD-1714]
SARS-CoV-2 M^pro-His6
  Ki: 20 nM
SARS-CoV-2 M^pro-His6; [10]
  Ki: 20 ± 3 nM
SARS-CoV-2 M^pro-His6; [11]
  Ki: 20 ± 3 nM
[3]
  stabilization of M^pro (temperature shift): stabilized; also recorded: concentration-dependent stabilization
SARS-CoV-2 M^pro; read-out: Mpro Ki
  Ki: 24 ± 3 nM

## COc1cc(-c2cccc3[nH]ncc23)cc(CO)c1OCC(=O)N(C)C [CDD-1776]
SARS-CoV-2 M^pro-His6; [12]
  Mpro-His Ki: Inactive
SARS-CoV-2 M^pro-His6
  M^pro inhibitory activity (in words): completely abolished the activity
SARS-CoV-2 M^pro
  Mpro Ki: Inactive

## COc1cc(-c2cccc3[nH]ncc23)ccc1OCC(=O)N(C)C [CDD-1793]
SARS-CoV-2 M^pro-His6; [12]
  Mpro-His Ki: Inactive
SARS-CoV-2 M^pro-His6
  M^pro inhibitory activity (in words): completely abolished the activity
SARS-CoV-2 M^pro
  Mpro Ki: Inactive

## COc1cc(-c2cccc3c2cnn3C)cc(C=O)c1OCC(=O)N(C)C [CDD-1847]
SARS-CoV-2 M^pro-His6; [12]
  Mpro-His Ki: Inactive
SARS-CoV-2 M^pro-His6
  M^pro inhibitory activity (in words): completely lost activity
SARS-CoV-2 M^pro
  Mpro Ki: Inactive
[4]
  effect on SARS-CoV-2 induced cell death (in words): unable to prevent cell death
[4]; duplicates
  IC50, SARS-CoV-2 induced cell death (normalized cell index, RTCA): inactive

## COc1cc(-c2cccc3[nH]ncc23)cc(C(C)=O)c1OCC(=O)N(C)C [CDD-1883]
SARS-CoV-2 M^pro-His6; [12]
  Mpro-His Ki: Inactive
SARS-CoV-2 M^pro
  Mpro Ki: Inactive

## COc1cc(-c2cccc3[nH]ncc23)cc(C(=O)CO)c1OCC(=O)N(C)C [CDD-1886]
SARS-CoV-2 M^pro-His6; [12]
  Mpro-His Ki: Inactive
SARS-CoV-2 M^pro
  Mpro Ki: Inactive

## CCOC(=O)/C=C/c1cc(-c2cccc3[nH]ncc23)cc(OC)c1OCC(=O)N(C)C [CDD-1971]
SARS-CoV-2 M^pro-His6; [12]
  Mpro-His Ki: Inactive
SARS-CoV-2 M^pro
  Mpro Ki: Inactive

## CN(C)C(=O)COc1ccc(-c2cccc3[nH]ncc23)cc1C=O [CDD-1976]
[1]
  metabolic stability in mouse liver microsomes (in words): more stable in human liver microsomes, but not mouse
  half-life at 2 μM: 0.17 h
SARS-CoV-2 M^pro-His6
  Ki: 37 nM
  M^pro inhibitory activity (in words): better inhibition compared to CDD-1713
SARS-CoV-2 M^pro-His6; [10]
  Ki: 37 ± 4 nM
SARS-CoV-2 M^pro-His6; [11]
  Ki: 37 ± 4 nM
HepG2 cells [5]
  cell permeability in uptake assay of HepG2 cells: moderate cell permeability
[3]
  stabilization of M^pro (temperature shift): stabilized; also recorded: concentration-dependent stabilization; also recorded: most pronounced temperature shift
[6]
  compound remained in human plasma: 80%
[4]
  effect on SARS-CoV-2 induced cell death (in words): reduced cell death in a dose-dependent manner
HepG2 cells [7]; 100 μM
  cytotoxicity in HepG2 cells (in words): no obvious cytotoxicity
HepG2 cells [7]; Homo sapiens, HepG2, XTT assay, read-out: IC50, HepG2 cell viability
  IC50: > 100000 nM
[8]
  viability at 24 h, 100 µM: > 80%
[9]
  compound remained in mouse plasma: 80%
[2]
  metabolic stability in human liver microsomes (in words): more stable
  half-life at 2 μM: 0.69 h

## CN(C)C(=O)COc1ccc(-c2cccc3[nH]ncc23)cc1C#N [CDD-2038]
SARS-CoV-2 M^pro-His6; [12]
  Mpro-His Ki: Inactive
SARS-CoV-2 M^pro
  Mpro Ki: Inactive
